ChEMBL document CHEMBL1150486, “Dihydro-imidazolone derivatives as angiotensin II receptor antagonists: chiral effect on the activity” (Bioorg Med Chem Lett, 1994)

Legend:
[1] = target: T1, Type-1 angiotensin II receptor B (Rattus norvegicus, UniProt P29089); assay: In vitro binding affinity at Angiotensin II receptor, type 1 from rat liver membrane by [125I]- A II displacement.
T1 sequence (P29089 whole entry): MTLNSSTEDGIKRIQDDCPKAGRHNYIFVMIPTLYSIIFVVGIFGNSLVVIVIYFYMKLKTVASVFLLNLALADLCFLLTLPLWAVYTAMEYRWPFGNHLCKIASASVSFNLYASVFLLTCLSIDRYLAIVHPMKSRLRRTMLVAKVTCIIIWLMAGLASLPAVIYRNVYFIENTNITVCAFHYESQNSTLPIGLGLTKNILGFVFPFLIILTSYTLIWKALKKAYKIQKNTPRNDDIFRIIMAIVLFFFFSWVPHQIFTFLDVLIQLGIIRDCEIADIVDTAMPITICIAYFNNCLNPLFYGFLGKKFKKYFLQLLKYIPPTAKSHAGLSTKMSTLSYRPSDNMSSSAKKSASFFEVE

[2] = species: Oryctolagus cuniculus; assay: Antagonism of the AII induced contraction of rabbit aortic tissue in a functional assay; conditions: Aorta

SMILES | IC50 [1] | IC50 [2]
CCCCC1=NC(C)(C2CCCC2)C(=O)N1Cc1ccc(-c2ccccc2C(=O)O)cc1 (centres undefined) | 3.3 nM | 9.6 nM
CCCCC1=NC(C)(c2ccccc2)C(=O)N1Cc1ccc(-c2ccccc2C(=O)O)cc1 (centres undefined) | 19 nM | 130 nM
